According to ChEMBL document CHEMBL1153689, “Conversion of the phytoestrogen coumestrol into a selective estrogen receptor modulator (SERM) by attachment of an amine-containing sidechain” (Bioorg Med Chem Lett, 1996):

Tested on: MCF7
Assay: Inhibition of MCF-7 cell proliferation
Assay type: functional, cell-based
Details: Homo sapiens

Q: `Oc1ccc2c(c1)OC(c1ccc(OCCN3CCCCC3)cc1)c1c-2oc2cc(O)ccc12` (stereo unspecified) was tested. Which EC50 did it give?
A: 40 nM
